Assay results reported in patent US8669205B2, “Composition and method for controlling plant diseases” (Sumitomo Chemical Company, Limited, priority 2009, dated 2014).

Columns and labels:
[1] = test system: Rhizoctonia damping-off pathogen (Rhizoctonial solani); assay: Test Example 1: cucumber seed treatment, Rhizoctonia damping-off control; type: in vivo; conditions: cucumber (Sagamihanjiro) seed treatment, 9 days
Description: A DMSO solution of the compound I and a DMSO solution of tolclofos-methyl were respectively prepared. These solutions were mixed to prepare a DMSO solution containing predetermined concentrations of the compound I and tolclofos-methyl. Ten (10) μL of the DMSO solution and 1 g of cucumber (Sagamihanjiro) seeds were mixed by shaking in a 15-ml conical tube and then allowed to stand overnight to prepare treated seeds. A plastic pot was filled with sandy soil and the treated seeds were sown on it and then covered with sandy soil which had been mixed with a bran culture of Rhizoctonia damping-off pathogen (Rhizoctonial solani). The sown seeds were watered and then cultured in a greenhouse at 20 to 24° C. for 9 days. The occurrence of Rhizoctonia damping-off diseases was checked and the incidence of disease was calculated by Equation 1.
For comparison, a DMSO solution containing a predetermined concentration of tolclofos-methyl was prepared and subjected to the same test and then the incidence of disease was determined.
(§1) In order to calculate a control value, the same test was conducted in which the plants had been treated with none of the test compounds and the incidence of disease was determined.
(§2) The control value was calculated by the Equation 2 based on the incidence of disease thus determined. […]

[2] = test system: Rhizoctonia damping-off pathogen (Rhizoctonial solani); assay: Test Example 2: spray to the foot of rice, Rhizoctonia damping-off control; type: in vivo; conditions: rice (Nipponbare), tolclofos-methyl 50 alone, 5 days
Description: A plastic pot was filled with sandy soil and seeds of rice (Nipponbare) were sown on it, followed by cultivation in a greenhouse for 5 weeks. A wettable powder of the compound I was prepared by mixing 10 parts of the compound I, 35 parts of a mixture of white carbon and a polyoxyethylene alkyl ether sulfate ammonium salt (weight ratio of 1:1) and 55 parts of water, followed by grinding the mixture. A wettable powder of tolclofos-methyl was prepared by mixing 10 parts of […], 35 parts of a mixture of white carbon and a polyoxyethylene alkyl ether sulfate ammonium salt (weight ratio of 1:1) and 55 parts of water, followed by grinding the mixture. Each of the wettable powder thus prepared was diluted with water, respectively, followed by mixing together to prepare a mixed solution containing predetermined concentrations of the compound I and tolclofos-methyl. The mixed solution was sprayed to the foot of the rice. […] The occurrence of Rhizoctonia damping-off diseases was checked and the incidence of disease was calculated by Equation 3. […]
as §1, §2

COP(=S)(OC)Oc1c(Cl)cc(C)cc1Cl [Tolclofos-methyl]
Control value ([1]; tolclofos-methyl 10 g/100 kg seeds alone): 38 | Control value ([1]; tolclofos-methyl 40 g/100 kg seeds alone): 75 | Control value [2]: 58
